ChEMBL document CHEMBL1201861, “Genomics of Drug Sensitity in Cancer screening data, Wellcome Trust Sanger Institute”

Experiments:
COR-L279 = experiment: SANGER: Inhibition of human COR-L279 cell growth in a cell viability assay.; type: functional, cell-based
Capan-2 = experiment: cells; type: functional, cell-based; settings: Homo sapiens;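 note: Capan-2 cell growth inhibition, read out with a viability assay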
Description: SANGER: Inhibition of human Capan-2 cell growth in a cell viability assay.

DOK = experiment: cells; type: functional, cell-based; settings: Homo sapiens;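 note: cell viability assay read-out, values reflect inhibition of cell growth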
Description: SANGER: Inhibition of human DOK cell growth in a cell viability assay.

Daudi = experiment: cells; type: functional, cell-based; settings: Homo sapiens;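 note: growth inhibition of Daudi cells, read out by a viability assay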
Description: SANGER: Inhibition of human Daudi cell growth in a cell viability assay.

DoTc2-4510 = experiment: cells; type: functional, cell-based; settings: Homo sapiens
EGI-1 = experiment: cells; type: functional, cell-based; settings: Homo sapiens;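 note: cell viability readout used to gauge growth inhibition of EGI-1 cells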
Description: SANGER: Inhibition of human EGI-1 cell growth in a cell viability assay.

G-402 = experiment: cells; type: functional, cell-based; settings: Homo sapiens
Description: SANGER: Inhibition of human G-402 cell growth in a cell viability assay.

GAMG = experiment: cells; type: functional, cell-based; settings: Homo sapiens;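 note: cell growth inhibition measured by a viability assay in the GAMG human cell line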
Description: SANGER: Inhibition of human GAMG cell growth in a cell viability assay.

GDM-1 = experiment: cells; type: functional, cell-based; settings: Homo sapiens;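 note: cell viability readout used to measure growth inhibition of human GDM-1 cells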
Description: SANGER: Inhibition of human GDM-1 cell growth in a cell viability assay.

GP5d = experiment: cells; type: functional, cell-based; settings: Homo sapiens;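 note: growth inhibition of human GP5d cells, read out with a cell viability assay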
Description: SANGER: Inhibition of human GP5d cell growth in a cell viability assay.

HT-1080 = experiment: cells; type: functional, cell-based; settings: Homo sapiens
Description: SANGER: Inhibition of human HT-1080 cell growth in a cell viability assay.

HT1197 = experiment: cells; type: functional, cell-based, HT-1197; settings: Homo sapiens
Description: SANGER: Inhibition of human HT-1197 cell growth in a cell viability assay.

J82 = experiment: cells; type: functional, cell-based; settings: Homo sapiens;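 note: growth inhibition of J82 cells, read out with a cell viability assay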
Description: SANGER: Inhibition of human J82 cell growth in a cell viability assay.

JEG-3 = experiment: cells; type: functional, cell-based; settings: Homo sapiens;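 note: growth inhibition of human JEG-3 cells, read out with a cell viability assay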
Description: SANGER: Inhibition of human JEG-3 cell growth in a cell viability assay.

KYSE-410 = experiment: cells; type: functional, cell-based; settings: Homo sapiens;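 note: growth inhibition of KYSE-410 cells, measured through a cell viability readout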
Description: SANGER: Inhibition of human KYSE-410 cell growth in a cell viability assay.

KYSE-510 = experiment: cells; type: functional, cell-based; settings: Homo sapiens;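 note: cell viability readout used to measure how strongly growth of the cell line is suppressed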
Description: SANGER: Inhibition of human KYSE-510 cell growth in a cell viability assay.

LB647-SCLC = experiment: cells; type: functional, cell-based; settings: Homo sapiens;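 note: cell growth inhibition, read out by a viability assay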
Description: SANGER: Inhibition of human LB647-SCLC cell growth in a cell viability assay.

LB996-RCC = experiment: cells; type: functional, cell-based; settings: Homo sapiens
Description: SANGER: Inhibition of human LB996-RCC cell growth in a cell viability assay.

LC-1F = experiment: cells; type: functional, cell-based; settings: Homo sapiens;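 note: growth inhibition of human LC-1F cells, read out with a cell viability assay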
Description: SANGER: Inhibition of human LC-1F cell growth in a cell viability assay.

M059J = experiment: cells; type: functional, cell-based; settings: Homo sapiens;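 note: growth inhibition of M059J cells, read out with a cell viability assay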
Description: SANGER: Inhibition of human M059J cell growth in a cell viability assay.

MDA-MB-231 = experiment: cells; type: functional, cell-based; settings: Homo sapiens
Description: SANGER: Inhibition of human MDA-MB-231 cell growth in a cell viability assay.

MEL-JUSO = experiment: cells; type: functional, cell-based; settings: Homo sapiens;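 note: growth inhibition of human MEL-JUSO cells, read out with a cell viability assay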
Description: SANGER: Inhibition of human MEL-JUSO cell growth in a cell viability assay.

MHH-ES-1 = experiment: cells; type: functional, cell-based; settings: Homo sapiens
Description: SANGER: Inhibition of human MHH-ES-1 cell growth in a cell viability assay.

MKN-1 = experiment: cells; type: functional, cell-based; settings: Homo sapiens;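 note: growth inhibition of human MKN1 cells, read out by a cell viability measurement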
Description: SANGER: Inhibition of human MKN1 cell growth in a cell viability assay.

MKN-45 = experiment: cells; type: functional, cell-based; settings: Homo sapiens;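 note: growth inhibition of human MKN-45 cells, measured with a cell viability assay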
Description: SANGER: Inhibition of human MKN45 cell growth in a cell viability assay.

MeWo = experiment: cells; type: functional, cell-based; settings: Homo sapiens;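 note: growth inhibition of MeWo cells, determined by a cell viability readout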
Description: SANGER: Inhibition of human Mewo cell growth in a cell viability assay.

NCI-H1436 = experiment: cells; type: functional, cell-based; settings: Homo sapiens;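 note: growth suppression of human NCI-H1436 cells, determined with a cell viability readout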
Description: SANGER: Inhibition of human NCI-H1436 cell growth in a cell viability assay.

NCI-H1651 = experiment: cells; type: functional, cell-based; settings: Homo sapiens;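 note: Read-out is a cell viability assay, with IC50 expressing inhibition of NCI-H1651 cell growth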
Description: SANGER: Inhibition of human NCI-H1651 cell growth in a cell viability assay.

NCI-H1693 = experiment: cells; type: functional, cell-based; settings: Homo sapiens;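 note: growth inhibition of the human cell line, read out with a cell viability assay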
Description: SANGER: Inhibition of human NCI-H1693 cell growth in a cell viability assay.

NCI-H1993 = experiment: cells; type: functional, cell-based; settings: Homo sapiens;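 note: growth inhibition of the cancer cell line, assessed with a cell viability assay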
Description: SANGER: Inhibition of human NCI-H1993 cell growth in a cell viability assay.

NCI-H2052 = experiment: cells; type: functional, cell-based; settings: Homo sapiens;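 note: growth inhibition of NCI-H2052 cells, read out with a cell viability assay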
Description: SANGER: Inhibition of human NCI-H2052 cell growth in a cell viability assay.

NCI-H2141 = experiment: cells; type: functional, cell-based; settings: Homo sapiens;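 note: growth inhibition of human NCI-H2141 cells, read out with a cell viability assay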
Description: SANGER: Inhibition of human NCI-H2141 cell growth in a cell viability assay.

NCI-H2405 = experiment: cells; type: functional, cell-based; settings: Homo sapiens;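 note: growth inhibition of the human cell line, read out with a cell viability assay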
Description: SANGER: Inhibition of human NCI-H2405 cell growth in a cell viability assay.

NCI-H661 = experiment: cells; type: functional, cell-based; settings: Homo sapiens;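 note: cell viability assay read-out, IC50 being the concentration that inhibits growth of the cells by half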
Description: SANGER: Inhibition of human NCI-H661 cell growth in a cell viability assay.

NCI-H889 = experiment: cells; type: functional, cell-based; settings: Homo sapiens;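 note: cell growth inhibition of the cell line, read out with a viability assay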
Description: SANGER: Inhibition of human NCI-H889 cell growth in a cell viability assay.

NCI-N87 = experiment: cells; type: functional, cell-based; settings: Homo sapiens;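 note: growth inhibition of human NCI-N87 cells, read out with a cell viability assay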
Description: SANGER: Inhibition of human NCI-N87 cell growth in a cell viability assay.

OAW-28 = experiment: cells; type: functional, cell-based; settings: Homo sapiens;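 note: growth inhibition of OAW-28 cells, read out with a cell viability assay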
Description: SANGER: Inhibition of human OAW-28 cell growth in a cell viability assay.

OVCAR-3 = experiment: cells; type: functional, cell-based; settings: Homo sapiens;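 note: growth inhibition of human OVCAR-3 cells, determined by a cell viability assay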
Description: SANGER: Inhibition of human OVCAR-3 cell growth in a cell viability assay.

P31-FUJ = experiment: cells; type: functional, cell-based; settings: Homo sapiens;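 note: growth inhibition of P31-FUJ cells, read out with a viability assay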
Description: SANGER: Inhibition of human P31-FUJ cell growth in a cell viability assay.

PANC-08-13 = experiment: cells; type: functional, cell-based; settings: Homo sapiens
Description: SANGER: Inhibition of human PANC-08-13 cell growth in a cell viability assay.

RPMI 8402 = experiment: SANGER: Inhibition of human RPMI-8402 cell growth in a cell viability assay.; type: functional, cell-based
RVH-421 = experiment: cells; type: functional, cell-based; settings: Homo sapiens
Description: SANGER: Inhibition of human RVH-421 cell growth in a cell viability assay.

SAS = experiment: cells; type: functional, cell-based; settings: Homo sapiens;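 note: growth inhibition of SAS cells, read out with a cell viability assay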
Description: SANGER: Inhibition of human SAS cell growth in a cell viability assay.

SIG-M5 = experiment: cells; type: functional, cell-based; settings: Homo sapiens;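 note: cell viability assay read-out, measuring how strongly growth of cultured human SIG-M5 cells is inhibited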
Description: SANGER: Inhibition of human SIG-M5 cell growth in a cell viability assay.

SK-MES-1 = experiment: cells; type: functional, cell-based; settings: Homo sapiens;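 note: growth inhibition of human SK-MES-1 cells, read out with a cell viability assay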
Description: SANGER: Inhibition of human SK-MES-1 cell growth in a cell viability assay.

SK-MM-2 = experiment: cells; type: functional, cell-based; settings: Homo sapiens;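 note: growth inhibition of human SK-MM-2 cells, read out with a cell viability assay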
Description: SANGER: Inhibition of human SK-MM-2 cell growth in a cell viability assay.

SK-OV-3 = experiment: cells; type: functional, cell-based; settings: Homo sapiens;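 note: growth inhibition of SK-OV-3 human cells, read out with a cell viability assay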
Description: SANGER: Inhibition of human SK-OV-3 cell growth in a cell viability assay.

SNU-387 = experiment: cells; type: functional, cell-based; settings: Homo sapiens
Description: SANGER: Inhibition of human SNU-387 cell growth in a cell viability assay.

SNU-C1 = experiment: cells; type: functional, cell-based; settings: Homo sapiens;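 note: growth inhibition of SNU-C1 human cells, read out by a cell viability assay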
Description: SANGER: Inhibition of human SNU-C1 cell growth in a cell viability assay.

SW1573 = experiment: cells; type: functional, cell-based; settings: Homo sapiens;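 note: growth inhibition of SW1573 cells, read out with a cell viability assay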
Description: SANGER: Inhibition of human SW1573 cell growth in a cell viability assay.

SiHa = experiment: cells; type: functional, cell-based; settings: Homo sapiens;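 note: Viability-based readout of growth inhibition in SiHa cells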
Description: SANGER: Inhibition of human SiHa cell growth in a cell viability assay.

T98G = experiment: cells; type: functional, cell-based; settings: Homo sapiens;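 note: growth inhibition of T98G cells, read out by a cell viability assay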
Description: SANGER: Inhibition of human T98G cell growth in a cell viability assay.

A2780 = experiment: cells; type: functional, cell-based; settings: Homo sapiens;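 note: growth inhibition of A2780 cells, read out with a cell viability assay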
Description: SANGER: Inhibition of human A2780 cell growth in a cell viability assay.

A-431 = experiment: cells; type: functional, cell-based; settings: Homo sapiens;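 note: growth inhibition of A-431 cells, determined with a cell viability read-out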
Description: SANGER: Inhibition of human A431 cell growth in a cell viability assay.

BC1 cell line = experiment: SANGER: Inhibition of human BC-1 cell growth in a cell viability assay.; type: functional, cell-based
BC-3 = experiment: cells; type: functional, cell-based; settings: Homo sapiens;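 note: cell viability assay measuring growth inhibition of human BC-3 cells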
Description: SANGER: Inhibition of human BC-3 cell growth in a cell viability assay.

BFTC-905 = experiment: cells; type: functional, cell-based; settings: Homo sapiens
Description: SANGER: Inhibition of human BFTC-905 cell growth in a cell viability assay.

BL-41 = experiment: cells; type: functional, cell-based; settings: Homo sapiens;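 note: growth inhibition of human BL-41 cells, read out with a cell viability assay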
Description: SANGER: Inhibition of human BL-41 cell growth in a cell viability assay.

BXPC-3 = experiment: cells; type: functional, cell-based; settings: Homo sapiens;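 note: growth inhibition of human BxPC-3 cells, read out by a cell viability assay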
Description: SANGER: Inhibition of human BxPC-3 cell growth in a cell viability assay.

CAL-72 = experiment: cells; type: functional, cell-based; settings: Homo sapiens;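 note: cell viability assay measuring inhibition of proliferation in the CAL-72 cell line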
Description: SANGER: Inhibition of human CAL-72 cell growth in a cell viability assay.

TE-15 = experiment: cells; type: functional, cell-based; settings: Homo sapiens;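 note: cell viability readout of growth inhibition in TE-15 cells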
Description: SANGER: Inhibition of human TE-15 cell growth in a cell viability assay.

UACC-893 = experiment: cells; type: functional, cell-based; settings: Homo sapiens
Description: SANGER: Inhibition of human UACC-893 cell growth in a cell viability assay.

COLO-678 = experiment: cells; type: functional, cell-based; settings: Homo sapiens
Description: SANGER: Inhibition of human COLO-678 cell growth in a cell viability assay.

COLO-680N = experiment: cells; type: functional, cell-based; settings: Homo sapiens;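 note: cell viability assay used to measure inhibition of COLO-680N cell growth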
Description: SANGER: Inhibition of human COLO-680N cell growth in a cell viability assay.

CO[C@@]12[C@H](COC(N)=O)C3=C(C(=O)C(C)=C(N)C3=O)N1C[C@@H]1N[C@@H]12 [MITOMYCIN]
IC50 (COR-L279): < 62.5 nM
IC50 (Capan-2): 2790 nM
IC50 (DOK): 5160 nM
IC50 (Daudi): 392 nM
IC50 (DoTc2-4510): 180 nM
IC50 (EGI-1): 2390 nM
IC50 (G-402): 85.9 nM
IC50 (GAMG): 428 nM
IC50 (GDM-1): 377 nM
IC50 (GP5d): 84 nM
IC50 (HT-1080): 354 nM
IC50 (HT1197): 2020 nM
IC50 (J82): < 62.5 nM
IC50 (JEG-3): 2230 nM
IC50 (KYSE-410): 584 nM
IC50 (KYSE-510): < 62.5 nM
IC50 (LB647-SCLC): 336 nM
IC50 (LB996-RCC): 17.7 nM
IC50 (LC-1F): 862 nM
IC50 (M059J): 101 nM
IC50 (MDA-MB-231): 3240 nM
IC50 (MEL-JUSO): 51.3 nM
IC50 (MHH-ES-1): 16.3 nM
IC50 (MKN-1): 541 nM
IC50 (MKN-45): 165 nM
IC50 (MeWo): 9550 nM
IC50 (NCI-H1436): 1930 nM
IC50 (NCI-H1651): < 62.5 nM
IC50 (NCI-H1693): 900 nM
IC50 (NCI-H1993): > 16000 nM
IC50 (NCI-H2052): 1990 nM
IC50 (NCI-H2141): 853 nM
IC50 (NCI-H2405): 294 nM
IC50 (NCI-H661): 542 nM
IC50 (NCI-H889): 2480 nM
IC50 (NCI-N87): 438 nM
IC50 (OAW-28): 441 nM
IC50 (OVCAR-3): 1130 nM
IC50 (P31-FUJ): 3460 nM
IC50 (PANC-08-13): 2400 nM
IC50 (RPMI 8402): 17.1 nM
IC50 (RVH-421): 629 nM
IC50 (SAS): 615 nM
IC50 (SIG-M5): < 62.5 nM
IC50 (SK-MES-1): 51.1 nM
IC50 (SK-MM-2): 2720 nM
IC50 (SK-OV-3): 143 nM
IC50 (SNU-387): 2930 nM
IC50 (SNU-C1): 1910 nM
IC50 (SW1573): 145 nM
IC50 (SiHa): 1890 nM
IC50 (T98G): 524 nM
IC50 (A2780): 107 nM
IC50 (A-431): 43.8 nM
IC50 (BC1 cell line): 88.8 nM
IC50 (BC-3): 212 nM
IC50 (BFTC-905): 92.7 nM
IC50 (BL-41): 295 nM
IC50 (BXPC-3): 775 nM
IC50 (CAL-72): > 16000 nM
IC50 (TE-15): 73.7 nM
IC50 (UACC-893): 418 nM
IC50 (COLO-678): 2890 nM
IC50 (COLO-680N): 244 nM

CC(C)=CC[C@@H](O)C1=CC(=O)c2c(O)ccc(O)c2C1=O [SHIKONIN]
IC50 (COR-L279): > 16000 nM
IC50 (Capan-2): 1010 nM
IC50 (DOK): 5190 nM
IC50 (Daudi): 3440 nM
IC50 (DoTc2-4510): 263 nM
IC50 (EGI-1): 2510 nM
IC50 (G-402): 882 nM
IC50 (GAMG): 1710 nM
IC50 (GDM-1): 2680 nM
IC50 (GP5d): 1340 nM
IC50 (HT-1080): 260 nM
IC50 (HT1197): 276 nM
IC50 (J82): 143 nM
IC50 (JEG-3): 3170 nM
IC50 (KYSE-410): 752 nM
IC50 (KYSE-510): 253 nM
IC50 (LB647-SCLC): 233 nM
IC50 (LB996-RCC): > 16000 nM
IC50 (LC-1F): > 16000 nM
IC50 (M059J): 134 nM
IC50 (MDA-MB-231): 1020 nM
IC50 (MEL-JUSO): 540 nM
IC50 (MHH-ES-1): 689 nM
IC50 (MKN-1): 236 nM
IC50 (MKN-45): 608 nM
IC50 (MeWo): 517 nM
IC50 (NCI-H1436): 604 nM
IC50 (NCI-H1651): > 16000 nM
IC50 (NCI-H1693): > 16000 nM
IC50 (NCI-H1993): 2940 nM
IC50 (NCI-H2052): 61.1 nM
IC50 (NCI-H2141): 1710 nM
IC50 (NCI-H2405): 675 nM
IC50 (NCI-H661): 5430 nM
IC50 (NCI-H889): > 16000 nM
IC50 (NCI-N87): 2940 nM
IC50 (OAW-28): 1200 nM
IC50 (OVCAR-3): 383 nM
IC50 (P31-FUJ): 2070 nM
IC50 (PANC-08-13): 10400 nM
IC50 (RPMI 8402): 1500 nM
IC50 (RVH-421): 1470 nM
IC50 (SAS): 854 nM
IC50 (SIG-M5): 170 nM
IC50 (SK-MES-1): 6290 nM
IC50 (SK-MM-2): 499 nM
IC50 (SK-OV-3): 1560 nM
IC50 (SNU-387): 1070 nM
IC50 (SNU-C1): > 16000 nM
IC50 (SW1573): 372 nM
IC50 (SiHa): > 16000 nM
IC50 (T98G): 1080 nM
IC50 (A2780): 2560 nM
IC50 (A-431): 107 nM
IC50 (BC1 cell line): 2680 nM
IC50 (BC-3): 926 nM
IC50 (BFTC-905): 284 nM
IC50 (BL-41): 483 nM
IC50 (BXPC-3): 334 nM
IC50 (CAL-72): 1010 nM
IC50 (TE-15): 400 nM
IC50 (UACC-893): > 16000 nM
IC50 (COLO-678): 1630 nM
IC50 (COLO-680N): 590 nM
